Test results published in patent publication US20090016956A1, “Labeled Macrophages and Methods of Use Thereof” (priority 2007, published 2009).

System: reverse cholesterol transport pathway (RCTP)
Assay: modulation of the reverse cholesterol transport pathway (RCTP); modified in vivo assay (MIVA), release of labeled cholesterol from loaded cells
Settings: general statement in the description; the data are only in FIGS. 1-8, values not given
Method: In another embodiment, the invention includes a method of loading of cells, (e.g., macrophages in culture) with labeled cholesterol, e.g., radiolabeled cholesterol, by exposing the cells to autologous red cell membrane fragments which have been equilibrated with labeled cholesterol. The exposed cells phagocytose the red cell membrane fragments and internalize and store the labeled cholesterol becoming, in effect, foam cells. These ‘loaded’ cells are then administered, e.g., intraveneously injected, into a subject and allowed to distribute throughout the subject and settle within its organs (e.g., heart, lung, kidney, liver). A base level of cholesterol release is observed. After an appropriate length of time, the subject is treated with the test agent, or compound of interest and the release of label (e.g., labeled cholesterol) is measured and/or monitored as a function of time, dose, or dosing regimen. The appropriate length of time may be approximately twenty four hours, although it may also be longer or shorter, if so desired.
Stimulation of cholesterol release from the introduced loaded cells results in a transient increase in the amount of circulating label over baseline. Measurement of the kinetics of label release is carried out by direct analysis of samples of circulating whole blood, plasma, serum, feces, urine, saliva and/or cerebral spinal fluid. […]

CCCCCCCCCC[Si](C)(C)CCC(=O)NC(Cc1ccc(C)cc1)c1ccccc1 (stereo not shown) [Sandoz 58-035]
effectiveness in modulation of the RCTP: effective in modulation of the RCTP
